Experimental data published in PMC9332833 (Cancers, 2022).

What was measured:
[1] = Body and organ weights in K562 xenograft mice; conditions: for Brain weight / Heart weight / Kidneys weight / Liver weight / Lung weight / Splean weight: mean ± SD, N=4
Experimental: Eight-week-old female NOD.Cg-Prkdcscid Il2rgtm1Wjl/SzJ NSG mice (Jackson Laboratory, Bar Harbor, ME, USA) were injected subcutaneously into the dorsal fold with 1 × 10^6 K562 cells of the human chronic myeloid leukemia (CML) line in a final volume of 100 µL (0.5% of the mouse weight). On day 3 after cell administration, mice were randomly assigned to each group, and on days 4–17 of the experiment, the selected tested compounds and control solutions were administered intraperitoneally or orally. During the experiment, subcutaneous tumors and body weight were measured daily. Tumor growth during the experiment was measured with an electronic display caliper. The theoretical tumor volume [mm], was calculated according to the formula (a^2 × b) * 0.5, where a is the shorter tumor axis [mm] and b is the longer tumor axis [mm]. On day 26, the experiment was terminated: blood was collected and analyzed for cellular morphology and standard biochemistry metabolites. Tumors were weighed.
Control and treated mice were grouped according to the tested compounds and the scheme of their administrations (doses, administration frequencies, routes of administration) in the CML xenogeneic model obtained by subcutaneous transplantation of 1 × 10^6 cells of the human CML blast line K562 into mice NOD.Cg-Prkdcscid Il2rgtm1Wjl/SzJ (NSG).
Hydroxyurea K562 500 mg/kg, IP Aqua pro 1 x daily 8

[2] = Blood morphology in K562 xenograft mice; conditions: for GRA / MON / HGB / WBC / MPV / RBC / RDW / MCH / MCHC / HCT / MCV / LYMP: N=4; for GRA / MON / LYMP: standard range 0.0-99.0; for HGB: standard range 1.1-18; for WBC: standard range 3.0-15; for MPV: standard range 4.6-7.3; for RBC: standard range 5.0-12; for RDW: standard range 11.5-14.5; for MCH: standard range 12-24.5; for MCHC: standard range 21.6-42; for HCT: standard range 36-52; for MCV: standard range 44-69
K562-MDR1 cells = test: MTT viability test, K562-MDR1; type: cell-based, human; conditions: Homo sapiens; MTT, 48 h
Text: The K562-MDR1 cell line was developed using increasing concentrations of the commonly used antimitotic drug vincristine on a polyclonal K562 population, as described earlier. […] The DMSO concentration in the culture was 0.1%. The vincristine dose was doubled every 2–3 weeks (at least twice for each experiment) after the cells reached confluence. Cell’s viability was above 90%, as confirmed by Muse Cell Analyzer (Merck Millipore, Burlington, MA, USA). The final concentration of vincristine reached was 0.1 μM. The increase in the K562-MDR1 population was confirmed by flow cytometry and PCR.
Cells were seeded in 96-well plates; after 24 h, medium with the appropriate drug concentration was added to each well. After 48 h, Tetrazolium Bromide (Sigma-Aldrich, St. Louis, MO, USA) was added to each well for 2–3 h. After that, cells were lysed and formazan crystals were dissolved. Absorbance was read using an iMark Microplate absorbance reader (Bio-Rad, Hercules, CA, USA). Results were calculated relative to cells treated with DMSO only. […]
Cells were seeded in 96-well plates at 7 × 10^3 cells/well in 50 µL of complete medium (for K562 or K562-MDR1) or at 50 × 10^3 cells/well in 50 µL of complete medium (CD34+ cells). After 24 hours, 50 µL of medium with the appropriate drug concentration was added to each well. The final DMSO concentration per well was 1% for K562 and K562-MDR1 and 0.1% for CD34+ cells. After 48 hours, 20 µL of Tetrazolium Bromide (Sigma-Aldrich, St. Louis, MO, USA) at a concentration of 5 mg/mL was added to each well. Cells were incubated for 2-3 hours in a cell culture incubator, and then 10% SDS with 1% HCl was added to each well to lyse the cells and dissolve the formazan crystals. Plates were […]

HUVEC = tested on: HUVEC; parameters: method as in PMID 26902600, PMID 31487824; conditions: cited from earlier work
[3] = Stability of BK124.1 concentrate for injection; type: physicochemical; conditions: 1 mg BK124.1 in 50% Solutol HS 15/50% ethanol, 30-36 °C
Text: Additional file 2: Supplementary methods
The antibodies (Ab) used in the flow cytometry and immunoblotti ng experiments are listed according to the targeted protein and the vendor. Antibodies: BD Transduction Laboratories - p38 (ref. 612288), p-p38 (ref. 612289); Cell Signalling Technologies - c-Abl (ref. 2862), Akt (pan) (C67E7) (ref. 4691), STAT5 […]
(ref. 9102); Santa Cruz Biotechnology - Lamin B1 (A11) (ref. sc-377000), JNK, (ref. sc-7345), p-JNK (ref. sc-6254); Sigma - α-tubulin (ref. T-6074). Biolegend, San Diego, CA, USA - CD34 (CD34-APC), CD38 (anti- […]
BK124.1 preparation for injection
In the first step, 50 µL of Solutol HS 15 and 50 µL of anhydrous ethanol 99.8% were added to 1 mg of BK124.1, to obtain a solution of 50% Solutol HS 15/50% ethanol. This solution was shaken (1-2 h) at 30-40 °C until BK124.1 was completely dissolved. This solution was stable for 48 hours at temperatures between 30-36 °C. This concentrate is sticky, has poor filtration and portioning properties, and so cannot be administered intravenously or intraperitoneally without dilution. Therefore, in the second step, the prepared concentrate was diluted with aqua pro injectione to obtain a concentration of 10% Solutol HS 15/10% ethanol. […]

[4] = 20 mg/kg IP daily 14 days, mean ± SD
[5] = 30 mg/kg IP daily 14 days, mean ± SD
[6] = 30 mg/kg IP daily 14 days, mean

CCC12C(=O)C(CC)(C(c3ccccc3)=C1c1ccccc1)C1C(=O)N(CC(O)CNC(C)C)C(=O)C12 (stereo not drawn) [BK124.1, 4-[2-hydroxy-3-(propan-2-ylamino)propyl]-1,7-diethyl-8,9-diphenyl-4-azatricyclo [5.2.1.02,6]dec-8-ene-3,5,10-trione]
Brain weight ([1]; 20 mg/kg IP daily 14 days): 0.47 ± 0.02 g | Heart weight ([1]; 20 mg/kg IP daily 14 days): 0.10 ± 0.00 g | Kidneys weight ([1]; 20 mg/kg IP daily 14 days): 0.26 ± 0.03 g | Liver weight ([1]; 20 mg/kg IP daily 14 days): 1.09 ± 0.10 g | Lung weight ([1]; 20 mg/kg IP daily 14 days): 0.24 ± 0.10 g | Splean weight ([1]; 20 mg/kg IP daily 14 days): 0.03 ± 0.02 g | Brain weight ([1]; 30 mg/kg IP daily 14 days): 0.47 ± 0.01 g | Heart weight ([1]; 30 mg/kg IP daily 14 days): 0.10 ± 0.02 g | Kidneys weight ([1]; 30 mg/kg IP daily 14 days): 0.28 ± 0.02 g | Liver weight ([1]; 30 mg/kg IP daily 14 days): 1.27 ± 0.11 g | Lung weight ([1]; 30 mg/kg IP daily 14 days): 0.34 ± 0.02 g | Splean weight ([1]; 30 mg/kg IP daily 14 days): 0.03 ± 0.01 g | Morphology or weight of internal organs (liver, spleen, kidneys, lungs, heart) versus untreated controls ([1]; doses as in Table S3): no changes | Total body weight course ([1]; doses as in Table S3, control mice gained mass in the last 5 days): No such increase occurred | GRA [2, 4]: 39.3±9.8% | MON [2, 4]: 17.8±2.8% | HGB [2, 4]: 12.3 ± 0.7 g/dL | WBC [2, 4]: 14.9±4.7 103/μL | MPV [2, 4]: 5.0±0.2 μm3 | RBC [2, 4]: 7.1±0.4 106/μL | RDW [2, 4]: 13.1±0.4% | MCH [2, 4]: 17.3 ± 0.3 pg | MCHC [2, 4]: 32.4 ± 0.3 g/dL | HCT [2, 4]: 38.0±2.3% | MCV [2, 4]: 53.3±0.5 | LYMP ([2]; 20 mg/kg IP daily 14 days, mean): 42.9% | MON [2, 5]: 15.4±3.8% | HGB [2, 5]: 13.5 ± 0.5 g/dL | WBC [2, 5]: 10.5±5.0 103/μL | MPV [2, 5]: 5.1±0.2 μm3 | RBC [2, 5]: 7.9±0.2 106/μL | RDW [2, 5]: 12.9±0.1% | MCH [2, 5]: 17.2 ± 0.4 pg | MCHC [2, 5]: 32.4 ± 0.6 g/dL | HCT [2, 5]: 41.7±0.9% | MCV [2, 5]: 52.8±1.0 | GRA [2, 6]: 43.1% | LYMP [2, 6]: 41.6% | Blood morphology parameters ([2]; doses as in Table S3): within the norm | IC50 (K562-MDR1 cells): 2160 nM | Toxicity to normal cells (HUVEC): non-toxic | Time the solution was stable [3]: 48 h
